Laboratory results reported in US20240132513A1, “BENZAZEPINE DERIVATIVES, COMPOSITIONS, AND METHODS FOR TREATING COGNITIVE IMPAIRMENT” (AGENEBIO, INC., priority 2022, published 2024).
pKi: −log10 of the molar value. Where two headings read alike, the source gives them in different places.

Target: α5β3γ2 GABAA R (Homo sapiens, UniProt P18507+P31644)
Test: Binding activity on GABAA R: inhibition of [3H]Ro15-1788 binding, α5 containing receptor
Method: Tissue culture and Membrane Preparation: The binding was performed on Ltk cells stably expressing GABAA R: […], α2β3γ2, α3β3γ2 and α5β3γ2 (provided by Merck Co., NJ, USA). Cells were seeded in 100 mm culture plates in DMEM/F12 medium containing 10% serum and antibiotics in 5% CO2 and allowed to grow for 1-2 days. GABAAR expression was then induced by dexamethasone as follows: 0.5 μM for 1 day for α5 containing and 2 μM for 3 days for α1, α2 and α3 containing GABAARs. After induction, cells were collected by scraping into Dulbecco's Phosphate buffered saline (DPBS, pH 7.4, Invitrogen, Carlsbad, CA, USA) and centrifuged at 150×g for 10 min. The pellet was washed twice by re-suspension and centrifugation. The cell pellets from at least 5 different preps were combined, suspended in the binding assay buffer (50 mM KH2PO4; 1 mM EDTA; 0.2 M KCl, pH 7.4) and membranes prepared by sonication (3-5 times, 30 sec) using Branson Sonifier 150 (G. Heinmann, Germany). Protein content was determined using BCA assay (Bio-Rad Labs, Reinach, Switzerland) with Bovine Serum Albumin (Sigma Aldrich, St. Louis, MO, USA) as the standard. Aliquots were prepared and stored at −20° C. for further use in binding assays.
Ligand Binding: Saturation binding curves were obtained by incubating membranes with increasing concentrations (0.01-8 nM) of [^3H]Rol5-1788 (Flumazepil, 75-85 Ci/mmol, PerkinElmer, MA, USA), with nonspecific binding measured in the presence of 10 μM diazepam.
All binding assays were performed for 1 h at 4° C. in assay buffer. The total assay volume was 0.5 ml containing 0.2 mg/ml protein for α5 and 0.4 mg/ml for α1, α2, and α3 containing GABAAR membranes. Incubations were terminated by filtration through GF/B filters using a 24-Cell Harvestor (Brandel, Gaithersburg, MD, USA) followed by 3 washes with ice-cold assay buffer. Filters were transferred to scintillation vials, 5 ml scintillation liquid added, vortex-mixed and kept in dark. Next day, radioactivity was obtained using a scintillation counter (Beckman Coulter, Brea, CA, USA). All assays were performed in triplicate.
Data Analyses: Saturation and inhibition curves were obtained using GraphPad Prism software (GraphPad Software, Inc., CA, USA).

[1] = ranges of the column heads, [3H]Ro15-1788, Ltk cell membranes

Chain of α5β3γ2 GABAA R (P31644 32-462): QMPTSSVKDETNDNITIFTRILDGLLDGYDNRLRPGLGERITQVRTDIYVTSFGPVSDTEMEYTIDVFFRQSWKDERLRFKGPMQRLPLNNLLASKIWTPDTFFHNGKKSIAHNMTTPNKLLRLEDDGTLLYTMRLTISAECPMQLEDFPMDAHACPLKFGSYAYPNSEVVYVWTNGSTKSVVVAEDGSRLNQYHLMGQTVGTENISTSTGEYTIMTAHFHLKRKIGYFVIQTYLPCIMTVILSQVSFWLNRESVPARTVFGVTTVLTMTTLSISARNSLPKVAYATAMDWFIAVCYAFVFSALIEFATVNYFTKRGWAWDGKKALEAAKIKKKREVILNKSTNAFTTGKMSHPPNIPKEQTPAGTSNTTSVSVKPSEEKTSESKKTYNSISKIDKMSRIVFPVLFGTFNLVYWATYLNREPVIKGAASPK
Chain of α5β3γ2 GABAA R (P28472 26-473 partner): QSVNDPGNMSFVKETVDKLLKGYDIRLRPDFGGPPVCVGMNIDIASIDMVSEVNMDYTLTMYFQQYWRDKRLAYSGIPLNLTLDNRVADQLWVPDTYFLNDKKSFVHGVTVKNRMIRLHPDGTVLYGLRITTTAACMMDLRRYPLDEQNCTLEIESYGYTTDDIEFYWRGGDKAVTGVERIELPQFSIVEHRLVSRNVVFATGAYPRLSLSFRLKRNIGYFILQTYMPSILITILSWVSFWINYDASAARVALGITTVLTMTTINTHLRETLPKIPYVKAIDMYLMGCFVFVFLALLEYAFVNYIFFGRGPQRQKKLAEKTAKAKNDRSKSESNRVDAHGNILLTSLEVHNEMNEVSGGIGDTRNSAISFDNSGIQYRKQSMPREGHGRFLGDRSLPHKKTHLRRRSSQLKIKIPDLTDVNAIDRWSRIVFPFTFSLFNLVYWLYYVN
Chain of α5β3γ2 GABAA R (P18507 40-475): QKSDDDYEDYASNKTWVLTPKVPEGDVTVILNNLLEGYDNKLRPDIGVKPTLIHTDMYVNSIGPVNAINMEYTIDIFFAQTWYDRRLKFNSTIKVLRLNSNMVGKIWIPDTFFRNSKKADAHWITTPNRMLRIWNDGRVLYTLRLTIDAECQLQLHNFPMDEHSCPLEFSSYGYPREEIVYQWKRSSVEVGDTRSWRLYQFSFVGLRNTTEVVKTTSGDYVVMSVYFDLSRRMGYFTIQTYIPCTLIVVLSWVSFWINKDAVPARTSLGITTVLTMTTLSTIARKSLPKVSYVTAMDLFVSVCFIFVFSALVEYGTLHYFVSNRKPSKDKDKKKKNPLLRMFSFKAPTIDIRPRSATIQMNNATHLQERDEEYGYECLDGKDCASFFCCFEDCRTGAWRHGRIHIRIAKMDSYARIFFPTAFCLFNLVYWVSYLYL

Row | SMILES | pKi [1] | pKi
1 | Cc1noc(-c2cnc3n2CC(=O)N(C)c2cc(Cl)ccc2-3)n1 [Compound 32] | < 6.00 | 
2 | COc1ccc2c(c1)-c1nn(C)cc1Cc1c(-c3nc(C4(C)CCOCC4)no3)ncn1-2 [Compound 352] |  | > 7.00
3 | Clc1ccc2c(c1)-c1c(cnn1Cc1ccccc1)Cc1c(C3=N[C@@H](c4ccccc4)CO3)ncn1-2 [Compound 6] | < 6.00 | 
4 | COc1ccc2c(c1)-c1nn(C)cc1Cc1c(-c3noc(C(C)(C)CO)n3)ncn1-2 [Compound 376] |  | > 7.00
5 | Cn1cc2c(n1)-c1cc(Cl)ccc1-n1cnc(-c3noc(CCN4CCCC4=O)n3)c1C2 [Compound 383] | > 7.00 | 
6 | COc1ccc2c(c1)-c1nn(C)cc1Cc1c(-c3noc(CCN4CCCC4=O)n3)ncn1-2 [Compound 369] |  | > 7.00
7 | CCn1cc2c(n1)-c1cc(Cl)ccc1-n1cnc(-c3noc(C(C)(C)OC)n3)c1C2 [Compound 196] |  | > 7.00
8 | COc1ccc2c(c1)-c1n[nH]cc1Cc1c(-c3noc(C4(F)CC4)n3)ncn1-2 [Compound 191] |  | > 7.00
9 | CCOC(C)(C)c1nc(-c2ncn3c2Cc2cn(C)nc2-c2cc(OC)ccc2-3)no1 [Compound 341] |  | > 7.00
10 | COc1ccc2c(c1)-c1nn(CC3COC3)cc1Cc1c(-c3noc(C4(OC)CC4)n3)ncn1-2 [Compound 331] |  | > 7.00
11 | COc1ccc2c(c1)-c1oncc1Cc1c(-c3nc(CC(C)C)no3)ncn1-2 [Compound 67] | < 6.00 | 
12 | COc1ccc2c(c1)-c1[nH]ncc1Cc1c(-c3noc(C(C)C)n3)ncn1-2 [Compound 54] |  | > 7.00
13 | COc1ccc2c(c1)-c1nn(C)cc1Cc1c(-c3noc(C(C)(C)O)n3)ncn1-2 [Compound 388] |  | > 7.00
14 | Cn1cc2c(n1)-c1cc(Cl)ccc1-n1cnc(-c3noc(Cn4cccn4)n3)c1C2 [Compound 372] |  | > 7.00
15 | COc1ccc2c(c1)-c1nn(C)cc1Cc1c(-c3noc(C4(OC)CCOC4)n3)ncn1-2 (centres unmarked) [Compound 354] |  | > 7.00
16 | COCCOCc1coc(-c2ncn3c2Cc2cn(C)nc2-c2cc(OC)ccc2-3)n1 [Compound 272] |  | > 7.00
17 | Clc1ccc2c(c1)-c1[nH]ncc1Cc1c(-c3nc(C4CCC4)no3)ncn1-2 [Compound 107] |  | > 7.00
18 | COc1ccc2c(c1)-c1[nH]ncc1Cc1c(C#Cc3ccc(OC)nc3)ncn1-2 [Compound 38] |  | > 7.00
19 | Clc1ccc2c(c1)-c1nn(C3CCOC3)cc1Cc1c(-c3cnn(CC4CCOCC4)c3)ncn1-2 (centres unmarked) [Compound 321] |  | > 7.00
20 | Cn1cc2c(n1)-c1cc(Cl)ccc1-n1cnc(C3=NC4(COC4)CO3)c1C2 [Compound 182] |  | > 7.00
21 | COc1ccc2c(c1)-c1nn(C)cc1Cc1c(-c3nc(C(C)(C)OC)no3)ncn1-2 [Compound 335] |  | > 7.00
22 | COc1ccc2c(c1)-c1nn(Cc3ccccc3)cc1Cc1c(-c3nc(C)no3)ncn1-2 [Compound 16] |  | > 7.00
23 | Clc1ccc2c(c1)-c1[nH]ncc1Cc1c(-c3cnn(-c4ccccc4)c3)ncn1-2 [Compound 60] |  | 6.00 to 7.00

Row | SMILES | pKi [1] | pKi
24 | COCCn1cc2c(n1)-c1cc(OC)ccc1-n1cnc(-c3noc(C4CCOCC4)n3)c1C2 [Compound 318] |  | > 7.00
25 | COc1ccc2c(c1)-c1[nH]ncc1Cc1c(-c3noc(C(C)(C)C)n3)ncn1-2 [Compound 89] | > 7.00 | 
26 | COc1ccc2c(c1)-c1nn(C)cc1Cc1c(-c3noc(COC(F)(F)F)n3)ncn1-2 [Compound 359] |  | > 7.00
27 | COc1cccc(Cn2cc(-c3ncn4c3Cc3cn(C5CCOC5)nc3-c3cc(Cl)ccc3-4)cn2)n1 (centres unmarked) [Compound 338] |  | > 7.00
28 | CC(C)c1noc(-c2ncn3c2Cc2cnn(Cc4ccccc4)c2-c2cc(Cl)ccc2-3)n1 [Compound 2] |  | 6.00 to 7.00
29 | COc1ccc2c(c1)-c1nn(C)cc1Cc1c(-c3noc(CC(C)(C)OC)n3)ncn1-2 [Compound 344] |  | 6.00 to 7.00
30 | COc1ccc2c(c1)-c1nn(C)cc1Cc1c(-c3nc(CN4CCOCC4)no3)ncn1-2 [Compound 328] |  | > 7.00
31 | COc1ccc2c(c1)-c1nn(CC3CCOC3)cc1Cc1c(-c3noc(C(C)(C)OC)n3)ncn1-2 (centres unmarked) [Compound 374] |  | > 7.00
32 | COc1ccc2c(c1)-c1nn(C)cc1Cc1c(-c3noc(C4(C)COC4)n3)ncn1-2 [Compound 317] |  | > 7.00
33 | Cc1noc(-c2cnc3n2CC(=O)Nc2cc(Cl)ccc2-3)n1 [Compound 26] | < 6.00 | 
34 | COc1ccc2c(c1)-c1nn(C)cc1Cc1c(-c3nc(CN(C)C(C)=O)co3)ncn1-2 [Compound 378] |  | 6.00 to 7.00
35 | COc1ccc2c(c1)-c1oncc1Cc1c(C3=N[C@@H](c4ccccc4)CO3)ncn1-2 [Compound 48] | < 6.00 | 
36 | Cn1cc2c(n1)-c1cc(Cl)ccc1-n1cnc(-c3cnn(C4CCCO4)c3)c1C2 (centres unmarked) [Compound 221] |  | 6.00 to 7.00
37 | Cn1cc2c(n1)-c1cc(Cl)ccc1-n1cnc(-c3noc(CN4CCCC4=O)n3)c1C2 [Compound 382] |  | > 7.00
38 | COc1ccc2c(c1)-c1c(cnn1C)Cc1c(-c3noc(C4(OC)CC4)n3)ncn1-2 [Compound 204] |  | > 7.00
39 | COc1ccc2c(c1)-c1[nH]ncc1Cc1c(-c3ccnn3C)ncn1-2 [Compound 78] | < 6.00 | 
40 | COc1ccc2c(c1)-c1nn(C)cc1Cc1c(-c3nnc(COCC(F)(F)F)o3)ncn1-2 [Compound 334] |  | > 7.00
41 | C#Cc1ncn2c1Cc1cnoc1-c1cc(OC)ccc1-2 [Compound 51] | < 6.00 | 
42 | COc1ccc2c(c1)-c1nn(C)cc1Cc1c(-c3noc(CN4CCCC4=O)n3)ncn1-2 [Compound 368] |  | 6.00 to 7.00
43 | COc1ccc2c(c1)-c1[nH]ncc1Cc1c(-c3cnco3)ncn1-2 [Compound 95] |  | > 7.00
44 | COc1ccc2c(c1)-c1nn(C)cc1Cc1c(-c3noc(C4(F)CCOC4)n3)ncn1-2 (centres unmarked) [Compound 356] |  | > 7.00
45 | COc1ccc2c(c1)-c1[nH]ncc1Cc1c(-c3cnn(-c4ccccc4)c3)ncn1-2 [Compound 70] |  | 6.00 to 7.00
46 | COc1cccc(Cn2cc(-c3ncn4c3Cc3cn(CC5CCCO5)nc3-c3cc(Cl)ccc3-4)cn2)n1 (centres unmarked) [Compound 337] |  | > 7.00

Row | SMILES | pKi [1] | pKi
47 | COc1ccc2c(c1)-c1nn(C)cc1Cc1c(-c3noc(CN4CCOCC4)n3)ncn1-2 [Compound 348] |  | > 7.00
48 | COc1ccc2c(c1)-c1nn(Cc3ccccc3F)cc1Cc1c(-c3cnn(Cc4ccccc4)c3)ncn1-2 [Compound 77] |  | > 7.00
49 | COc1ccc2c(c1)-c1[nH]ncc1Cc1c(-c3ncco3)ncn1-2 [Compound 71] |  | > 7.00
50 | COc1ccc2c(c1)-c1nn(C)cc1Cc1c(-c3noc(C4(O)CCCC4)n3)ncn1-2 [Compound 384] |  | > 7.00
51 | COc1ccc2c(c1)-c1nn(CC3CCOC3)cc1Cc1c(-c3nc(C(F)(F)F)no3)ncn1-2 (centres unmarked) [Compound 265] |  | > 7.00
52 | COCCc1nc(-c2ncn3c2Cc2cn(C)nc2-c2cc(Cl)ccc2-3)no1 [Compound 387] |  | > 7.00
53 | COCCc1nc(-c2ncn3c2Cc2cn(C)nc2-c2cc(OC)ccc2-3)no1 [Compound 342] | > 7.00 | 
54 | Cn1cc2c(n1)-c1cc(Cl)ccc1-n1cnc(-c3noc(Cn4ccnc4)n3)c1C2 [Compound 373] |  | > 7.00
55 | COc1ccc2c(c1)-c1[nH]ncc1Cc1c(C3=N[C@@H](c4ccccc4)CO3)ncn1-2 [Compound 15] |  | > 7.00
56 | C[C@H]1COC(c2ncn3c2Cc2cnn(Cc4ccccc4)c2-c2cc(Cl)ccc2-3)=N1 [Compound 13] | < 6.00 | 
57 | CC(C)OCc1nc(-c2ncn3c2Cc2cn(CC4CCCO4)nc2-c2cc(Cl)ccc2-3)no1 (centres unmarked) [Compound 307] |  | > 7.00
58 | CCOC(=O)c1ncn2c1Cc1cnoc1-c1cc(OC)ccc1-2 [Compound 40] | > 7.00 | 
59 | COc1ccc2c(c1)-c1nn(Cc3ccccc3F)cc1Cc1c(-c3nc(C(C)C)no3)ncn1-2 [Compound 43] |  | > 7.00
60 | Clc1ccc2c(c1)-c1c(cnn1Cc1ccccc1)Cc1c(C3=N[C@H](c4ccccc4)CO3)ncn1-2 [Compound 5] |  | 6.00 to 7.00
61 | COc1ccc2c(c1)-c1[nH]ncc1Cc1c(C3=N[C@H](c4ccc(Cl)cc4)CO3)ncn1-2 [Compound 24] |  | > 7.00
62 | CC(C)c1noc(-c2cnc3n2CC(=O)Nc2cc(Cl)ccc2-3)n1 [Compound 27] | < 6.00 | 
63 | CN(C)Cc1noc(-c2ncn3c2Cc2cn(C)nc2-c2cc(Cl)ccc2-3)n1 [Compound 240] |  | > 7.00
64 | COc1ccc2c(c1)-c1nn(C)cc1Cc1c(-c3noc(C4(OC)CCCC4)n3)ncn1-2 [Compound 355] |  | > 7.00
65 | COc1ccc2c(c1)-c1nn(C)cc1Cc1c(-c3noc(CN4CCCC4)n3)ncn1-2 [Compound 347] |  | > 7.00
66 | CC#Cc1ncn2c1Cc1cn[nH]c1-c1cc(OC)ccc1-2 [Compound 83] | > 7.00 | 
67 | COCCn1cc2c(n1)-c1cc(OC)ccc1-n1cnc(-c3noc(C(C)(C)OC)n3)c1C2 [Compound 311] |  | > 7.00
68 | COc1ccc2c(c1)-c1c(cnn1CC1CCOC1)Cc1c(-c3noc(C(C)(C)OC)n3)ncn1-2 (centres unmarked) [Compound 375] |  | > 7.00
